Source: patent publication US8076324B2, “Di(hetero)arylcyclohexane derivatives, their preparation, their use and pharmaceutical compositions comprising them” (Sanofi-Aventis, priority 2007, dated 2011)
Structures can show the parent of a compound that is named as a salt.

System: not given
Test: not given
Details: not given

SMILES	melting point [°C]
O=C(O)[C@]1(c2ccc(F)cc2)CC[C@](OCC2CC2)(c2ccc(F)cn2)CC1	211
O=C(O)[C@]1(c2ccc(F)cc2)CC[C@](Oc2ncccn2)(c2ccc(F)cn2)CC1	159
O=C(O)[C@]1(c2ccc(F)cc2)CC[C@@](OCC2CC2)(c2cn(CC3CC3)c(-c3ccccc3)n2)CC1	198
CS(=O)(=O)c1cccc2c1nc([C@]1(OCC3CC3)CC[C@](C(=O)O)(c3ccccc3)CC1)n2CC1CC1	227
Cc1nc([C@]2(OCC3CC3)CC[C@](C(=O)O)(c3ccccc3)CC2)n(CC2CC2)c1S(C)(=O)=O (as salt: sulfonic acid salt)	206
O=C(O)[C@]1(c2ccc(F)cc2)CC[C@](Oc2ccccn2)(c2ccc(F)cn2)CC1 [Example 339, Trans-1-(4-Fluorophenyl)-4-(5-fluoropyridin-2-yl)-4-(pyridin-2-yloxy)cyclohexanecarboxylic Acid]	> 300
O=C(O)[C@]1(c2ccc(F)cc2)CC[C@](Oc2ccccc2)(c2ccc(F)cn2)CC1 [Example 345, Trans-1-(4-Fluorophenyl)-4-(5-fluoropyridin-2-yl)-4-phenoxycyclohexanecarboxylic Acid]	237

Molecular target: T1, myocardial ATP-sensitive potassium channel (SUR2A/Kir6.2) (UniProt Q61743+Q63563)
T1 construct: expressed in transfected cells
T1 sequence (Q63563 whole entry): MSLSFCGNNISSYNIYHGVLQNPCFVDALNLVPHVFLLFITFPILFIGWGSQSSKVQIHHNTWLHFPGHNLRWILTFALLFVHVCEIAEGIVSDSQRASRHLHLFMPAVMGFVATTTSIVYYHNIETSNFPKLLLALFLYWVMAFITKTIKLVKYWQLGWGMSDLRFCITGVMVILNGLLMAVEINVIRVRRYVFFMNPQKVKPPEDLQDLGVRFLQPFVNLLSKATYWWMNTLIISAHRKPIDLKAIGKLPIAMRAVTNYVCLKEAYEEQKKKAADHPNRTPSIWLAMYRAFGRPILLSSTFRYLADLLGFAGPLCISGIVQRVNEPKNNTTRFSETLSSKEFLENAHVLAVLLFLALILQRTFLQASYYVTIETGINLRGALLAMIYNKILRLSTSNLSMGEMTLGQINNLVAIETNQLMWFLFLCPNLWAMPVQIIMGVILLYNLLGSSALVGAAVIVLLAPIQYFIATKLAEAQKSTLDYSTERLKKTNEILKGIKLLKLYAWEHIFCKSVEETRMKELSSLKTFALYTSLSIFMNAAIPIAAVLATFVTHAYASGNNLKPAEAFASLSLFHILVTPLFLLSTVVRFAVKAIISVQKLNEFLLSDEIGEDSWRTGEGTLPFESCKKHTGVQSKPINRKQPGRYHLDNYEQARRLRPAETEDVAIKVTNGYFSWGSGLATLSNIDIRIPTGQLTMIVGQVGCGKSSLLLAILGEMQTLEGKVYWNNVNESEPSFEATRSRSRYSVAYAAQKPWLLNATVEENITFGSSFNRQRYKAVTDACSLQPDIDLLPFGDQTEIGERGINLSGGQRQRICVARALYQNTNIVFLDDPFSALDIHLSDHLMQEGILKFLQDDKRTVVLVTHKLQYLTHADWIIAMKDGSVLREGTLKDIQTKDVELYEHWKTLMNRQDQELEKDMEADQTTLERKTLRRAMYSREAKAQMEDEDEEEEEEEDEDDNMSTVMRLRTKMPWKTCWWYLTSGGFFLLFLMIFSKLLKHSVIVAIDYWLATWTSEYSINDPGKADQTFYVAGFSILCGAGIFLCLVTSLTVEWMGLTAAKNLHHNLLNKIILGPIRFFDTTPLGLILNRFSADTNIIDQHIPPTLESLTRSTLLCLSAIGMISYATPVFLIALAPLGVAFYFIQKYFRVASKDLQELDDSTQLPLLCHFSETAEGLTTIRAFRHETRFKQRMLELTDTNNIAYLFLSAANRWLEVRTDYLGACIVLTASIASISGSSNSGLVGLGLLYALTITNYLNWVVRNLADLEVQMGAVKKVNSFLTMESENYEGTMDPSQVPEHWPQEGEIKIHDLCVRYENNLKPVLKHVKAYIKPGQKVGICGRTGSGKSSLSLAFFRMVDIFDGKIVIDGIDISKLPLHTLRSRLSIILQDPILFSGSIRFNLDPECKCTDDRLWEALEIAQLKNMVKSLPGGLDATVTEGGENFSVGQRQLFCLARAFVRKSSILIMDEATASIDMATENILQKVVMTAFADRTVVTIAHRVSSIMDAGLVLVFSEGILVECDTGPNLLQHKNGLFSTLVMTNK
T1 sequence (Q61743 whole entry): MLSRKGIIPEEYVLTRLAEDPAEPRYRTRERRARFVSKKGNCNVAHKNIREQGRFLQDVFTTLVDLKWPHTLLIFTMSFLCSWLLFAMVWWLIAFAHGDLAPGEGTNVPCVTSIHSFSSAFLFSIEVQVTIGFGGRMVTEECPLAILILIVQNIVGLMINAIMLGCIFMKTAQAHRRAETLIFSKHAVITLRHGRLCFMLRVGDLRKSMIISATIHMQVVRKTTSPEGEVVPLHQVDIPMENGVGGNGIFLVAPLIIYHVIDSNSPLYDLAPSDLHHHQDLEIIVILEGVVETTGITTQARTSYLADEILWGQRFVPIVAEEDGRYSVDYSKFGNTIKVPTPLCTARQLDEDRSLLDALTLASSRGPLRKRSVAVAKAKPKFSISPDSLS
Test: Rubidium efflux test on HEK293 cells transfected with SUR2A and Kir6.2 (myocardial action)
Format: cell-based, SUR2A from the rat, Kir6.2 from the mouse
Details: HEK293 cells transfected with SUR2A/Kir6.2; KATP channels opened by rilmakalim; 25 min incubation; read-out: IC50 values for the inhibition of the rubidium efflux
Experimental: 1) Action on the SUR2A/Kir6.2 potassium channel (myocardial action) The action of the compounds on the ion transport through the myocardial ATP-sensitive potassium channel (SUR2A/Kir6.2) was determined in the rubidium efflux test system described below on human embryonic kidney cells HEK293 which were transfected with the components SUR2A and Kir6.2 (cf. Weyermann et al., Naunyn-Schmiedeberg's Arch. Pharmacol. 369, 374-381 (2004)).
The HEK293 cells were cultured at 37° C. in a humidified air atmosphere with 7% carbon dioxide in minimal essential medium with Earle's salts and L-glutamine (MEM, Gibco), which was supplemented with 10% fetal calf serum and zeozin (0.36 mg/ml) and geneticin (0.75 mg/ml). The transfection of the cells and the preparation of a cell line with stable expression of Kir6.2 from the mouse (accession number AF037313) and SUR2A from the rat (accession number D83598/L40624) were carried out as described in Giblin et al., J. Biol. Chem. 274, 22652-22659 (1999).
60 000 transfected cells per well were inoculated into a poly-D-lysine-coated 96-well microtiter plate (Greiner #650 201). After incubation for 24 h at 37° C., the cells were washed three times with buffer 1 (150 mM NaCl, 2 mM CaCl2, 0.8 mM NaH2PO4, 1 mM MgCl2, 5 mM glucose, 25 mM HEPES, pH=7.4). Subsequently, the buffer solution was replaced by 100 μl of rubidium loading buffer (buffer 1 with 5.4 mM RbCl) and the cells were incubated for a further 3 h at 37° C. The rubidium loading buffer was then removed by washing the cells three times with 200 μl each of potassium chloride wash buffer (buffer 1 with 5.4 mM KCl). After addition of the test substances (70 μl; dissolved in potassium chloride wash buffer with addition of DMSO), the KATP channels of the cells were opened by addition of 70 μl of rilmakalim (2 μM) (cf. Krause et al., Pflügers Arch. 429, 625-635 (1995)) and the cells were incubated at 37° C. for 25 min. Subsequently, the cell supernatants were transferred to a new 96-well microtiter plate and the cells were lyzed by addition of 200 μl of lysis buffer (buffer 1 with 1% Triton X-100). The concentrations of Rb^+ in the cell supernatant and in the cell lyzate were measured by means of atomic absorption spectroscopy using an Al 1200 apparatus (Aurora Instruments Ltd.).
The Rb^+ efflux rate was calculated as [Rb^+SN]/[Rb^+total], wherein [Rb^+SN] is the amount of Rb^+ in the cell supernatant and [Rb^+total] is the sum of the amounts of Rb^+ in the cell supernatant and cell lyzate. IC50 values for the inhibition of the rubidium efflux were calculated with the aid of the Hill equation.

SMILES	IC50 [nM]
O=C(O)[C@]1(c2ccc(F)cc2)CC[C@](Oc2ccccn2)(c2ccc(F)cn2)CC1 [Example 339, Trans-1-(4-Fluorophenyl)-4-(5-fluoropyridin-2-yl)-4-(pyridin-2-yloxy)cyclohexanecarboxylic Acid]	< 1000
O=C(O)[C@]1(c2ccc(F)cc2)CC[C@](Oc2ccccc2)(c2ccc(F)cn2)CC1 [Example 345, Trans-1-(4-Fluorophenyl)-4-(5-fluoropyridin-2-yl)-4-phenoxycyclohexanecarboxylic Acid]	< 1000
Cc1nc([C@]2(OCC3CC3)CC[C@](C(=O)O)(c3ccccc3)CC2)n(CC2CC2)c1Cl [Example 382]	< 1000
Cc1c(Cl)nc([C@]2(OCC3CC3)CC[C@](C(=O)O)(c3ccccc3)CC2)n1CC1CC1 [Example 383]	< 1000
Cc1nc([C@]2(OCC3(C)COC3)CC[C@](C(=O)O)(c3ccccc3)CC2)n(CC2CC2)c1Cl [Example 385]	< 1000
O=C(O)[C@]1(c2ccccc2)CC[C@@](OCC2CC2)(c2nc(Cl)c(Cl)n2CC2CC2)CC1 [Example 387]	< 1000
CCCn1c(Cl)c(C)nc1[C@]1(OCC2CC2)CC[C@](C(=O)O)(c2ccccc2)CC1 [Example 388]	< 1000
CCCn1c(Cl)c(C)nc1[C@]1(OCCC(C)(C)C)CC[C@](C(=O)O)(c2ccccc2)CC1 [Example 389]	< 1000
CCCn1c(Cl)c(C)nc1[C@]1(OCCOC)CC[C@](C(=O)O)(c2ccccc2)CC1 [Example 390]	< 1000
Cc1nc([C@]2(OCC3CC3)CC[C@](C(=O)O)(c3ccccc3)CC2)n(C)c1Cl [Example 391]	< 1000
Cc1nc([C@]2(OCCC(C)(C)C)CC[C@](C(=O)O)(c3ccccc3)CC2)n(C)c1Cl [Example 392]	< 1000
CC(C)(C)c1nc([C@]2(OCC3CC3)CC[C@](C(=O)O)(c3ccccc3)CC2)n(CC2CC2)c1Cl [Example 393]	< 1000
CC(C)c1nc([C@]2(OCC3CC3)CC[C@](C(=O)O)(c3ccccc3)CC2)n(CC2CC2)c1Cl [Example 394]	< 1000
Cc1c(Br)nc([C@]2(Oc3ccccc3)CC[C@@](C(=O)O)(c3ccc(F)cc3)CC2)n1CC1CC1 [Example 404]	< 1000
O=C(O)[C@]1(c2ccc(F)cc2)CC[C@](Oc2ccccc2)(c2nc3ccccc3n2CC2CC2)CC1 [Example 406]	< 1000
Cc1nc([C@]2(OCC3CC3)CC[C@](C(=O)O)(c3cccnc3)CC2)n(CC2CC2)c1Cl [Example 407]	< 1000
Cc1nc([C@]2(OCC3CC3)CC[C@](C(=O)O)(c3ccc(S(C)(=O)=O)cc3)CC2)n(CC2CC2)c1Cl [Example 408]	< 1000
Cc1nc([C@]2(OCC3CC3)CC[C@](C(=O)O)(c3cccc(OC(F)(F)F)c3)CC2)n(CC2CC2)c1Cl [Example 409]	< 1000
Cc1nc([C@]2(OCC3CC3)CC[C@](C(=O)O)(c3ccc(OC(F)(F)F)cc3)CC2)n(CC2CC2)c1Cl [Example 410]	< 1000

SMILES	IC50 [nM]
Cc1ccc([C@]2(C(=O)O)CC[C@](OCC3CC3)(c3nc4ccccc4n3CC3CC3)CC2)cc1 [Example 412]	< 1000
O=C(O)[C@]1(c2ccccc2)CC[C@@](OCC2CC2)(c2nc3cccnc3n2CC2CC2)CC1 [Example 448]	< 1000
O=C(O)[C@]1(c2ccccc2)CC[C@](OCC2CC2)(c2nc3cc(Cl)ccc3n2CC2CC2)CC1 [Example 451]	< 1000
O=C(O)[C@]1(c2ccccc2)CC[C@@](OCC2CC2)(c2nc3cc(F)ccc3n2CC2CC2)CC1 [Example 452]	< 1000
O=C(O)[C@]1(c2ccccc2)CC[C@](OCC2CC2)(c2nc3cc(F)ccc3n2CC2CC2)CC1 [Example 453]	< 1000
CS(=O)(=O)c1cccc2nc([C@]3(OCC4CC4)CC[C@](C(=O)O)(c4ccccc4)CC3)n(CC3CC3)c12 [Example 455]	< 1000
O=C(O)[C@]1(c2ccccc2)CC[C@](Oc2ccccc2)(c2nc(-c3ccccc3)nn2CC2CC2)CC1 [Example 466]	< 1000
CS(=O)(=O)c1ccc(-c2nc([C@]3(Oc4ccccc4)CC[C@@](C(=O)O)(c4ccccc4)CC3)n(CC3CC3)n2)cc1 [Example 467]	< 1000
Cc1c(F)cc(S(C)(=O)=O)cc1[C@]1(OCC2CC2)CC[C@](C(=O)O)(c2ccccc2)CC1 [Example 480, Cis-4-Cyclopropylmethoxy-4-(3-fluoro-2-methyl-5-methanesulfonylphenyl)-1-phenylcyclohexanecarboxylic Acid]	< 1000
Cc1c(F)cc([C@]2(OCC3CC3)CC[C@](C(=O)O)(c3ccccc3)CC2)cc1S(C)(=O)=O [Example 482, Cis-4-Cyclopropylmethoxy-4-(3-fluoro-5-methanesulfonyl-4-methylphenyl)-1-phenylcyclohexanecarboxylic Acid]	< 1000
O=C(O)[C@]1(c2ccccc2)CC[C@@](OCC2CC2)(c2cc(-c3ccccc3)ccn2)CC1 [Example 485, Cis-4-Cyclopropylmethoxy-1-phenyl-4-(4-phenylpyridin-2-yl)cyclohexanecarboxylic Acid]	< 1000
O=C(O)[C@]1(c2ccccc2)CC[C@](OCC2CC2)(c2cc(-c3ccccc3)ccn2)CC1 [Example 486, Trans-4-Cyclopropylmethoxy-1-phenyl-4-(4-phenylpyridin-2-yl)cyclohexanecarboxylic Acid]	< 1000
O=C(O)[C@]1(c2ccccc2)CC[C@@](OCC2CC2)(c2ccnc(-c3ccccc3)c2)CC1 [Example 488, Cis-4-Cyclopropylmethoxy-1-phenyl-4-(2-phenylpyridin-4-yl)cyclohexanecarboxylic Acid]	< 1000
O=C(O)[C@]1(c2ccccc2)CC[C@](OCC2CC2)(c2ccnc(-c3ccccc3)c2)CC1 [Example 489, Trans-4-Cyclopropylmethoxy-1-phenyl-4-(2-phenylpyridin-4-yl)cyclohexanecarboxylic Acid]	< 1000
O=C(O)[C@]1(c2ccccc2)CC[C@@](OCC2CC2)(c2nccn2CC2CC2)CC1 [Example 492, Cis-Cyclopropylmethoxy-4-(1-cyclopropylmethyl-1H-imidazol-2-yl)-1-phenylcyclohexanecarboxylic Acid]	< 1000
O=C(O)[C@]1(c2ccccc2)CC[C@](OCC2CC2)(c2nccn2CC2CC2)CC1 [Example 493, Trans-Cyclopropylmethoxy-4-(1-cyclopropylmethyl-1H-imidazol-2-yl)-1-phenylcyclohexanecarboxylic Acid]	< 1000
C=C(CO[C@]1(c2nccn2CC2CC2)CC[C@@](C(=O)O)(c2ccccc2)CC1)c1ccccc1 [Example 495, Cis-4-(1-Cyclopropylmethyl-1H-imidazol-2-yl)-1-phenyl-4-(2-phenylallyloxy)cyclohexanecarboxylic Acid]	< 1000
O=C(O)[C@]1(c2ccccc2)CC[C@@](OCC2(c3ccccc3)COC2)(c2nccn2CC2CC2)CC1 [Example 497, 4-(1-Cyclopropylmethyl-1H-imidazol-2-yl)-1-phenyl-4-(3-phenyloxetan-3-ylmethoxy)cyclohexanecarboxylic Acid]	< 1000
O=C(O)[C@]1(c2ccccc2)CC[C@@](OCC2(c3ccccc3)COC2)(c2ccc(F)cc2)CC1 [Example 499, 4-(4-Fluorophenyl)-1-phenyl-4-(3-phenyloxetan-3-ylmethoxy)cyclohexanecarboxylic Acid]	< 1000
